Reference: patent US20210255184A1, “Biosensor Device and Methods” (The New Zealand Institute for Plant and Food Research …, priority 2018, published 2021)

What was measured:
[1] = GFET sensor, empty liposomes (control); type: biochemical
Experimental: The OR liposomes were functionalised onto the graphene surface via a non-covalent route using PBASE as the molecular linker as shown in FIG. 13. The OR liposomes were diluted at 1:10 ratio with 1×PBS (pH7.4). The cleaned GFETs were immersed in 1 mM PBASE solution in methanol for 1 hour. The devices were washed three times in methanol and subsequently washed three times in 1×PBS to remove the excess PBASE and residual methanol in the channel respectively. The OR liposomes were diluted 1:10 with 1×PBS (pH 7.4) and 100 μL of the OR dilution was placed in the graphene channel and incubated at room temperature for one hour in a closed petri dish. After OR liposome functionalization, the devices were washed in 1×PBS for 10 s before measurements.
The OR liposome immobilised GFET device with a PDMS well mounted on it was placed onto the probe station and the source and drain connections were made by micromanipulators. 100 μl of PBS containing 1% dimethyl sulfoxide (DMSO) was added to the well and the Ag/AgCl standard electrode was placed into the buffer. The stock solution of ligands at 100 mM concentrations were prepared by dissolving them in DMSO as they are not stable in aqueous buffer. The stock solution was stored at 4° C. The ligand solution for sensing was prepared by diluting the stock solution in 1×PBS buffer containing 1% DMSO to set concentrations from 10 fM to 100 pM. […]

Or10a/Orco = target: T1, Or10a/Orco (Drosophila melanogaster, UniProt Q9VYZ1); assay: GFET sensor, Or10a/Orco liposomes; type: biochemical; settings: Table 4, GFET
T1 construct: his-tag; made in house; host or cells: baculovirus-infected Sf9 cells
T1 sequence (Q9VYZ1 1-406): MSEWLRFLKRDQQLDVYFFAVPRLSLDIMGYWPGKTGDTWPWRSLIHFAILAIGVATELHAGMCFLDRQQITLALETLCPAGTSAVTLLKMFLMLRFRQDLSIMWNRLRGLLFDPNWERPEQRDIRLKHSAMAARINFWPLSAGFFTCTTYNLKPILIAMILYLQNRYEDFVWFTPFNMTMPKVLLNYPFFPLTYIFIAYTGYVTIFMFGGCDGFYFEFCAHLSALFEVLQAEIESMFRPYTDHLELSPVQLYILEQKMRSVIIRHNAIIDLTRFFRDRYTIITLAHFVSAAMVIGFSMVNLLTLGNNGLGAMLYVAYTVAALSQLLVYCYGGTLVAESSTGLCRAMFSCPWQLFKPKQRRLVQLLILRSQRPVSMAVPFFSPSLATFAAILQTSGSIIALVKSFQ
T1 sequence (Q9VNB5 1-486 partner): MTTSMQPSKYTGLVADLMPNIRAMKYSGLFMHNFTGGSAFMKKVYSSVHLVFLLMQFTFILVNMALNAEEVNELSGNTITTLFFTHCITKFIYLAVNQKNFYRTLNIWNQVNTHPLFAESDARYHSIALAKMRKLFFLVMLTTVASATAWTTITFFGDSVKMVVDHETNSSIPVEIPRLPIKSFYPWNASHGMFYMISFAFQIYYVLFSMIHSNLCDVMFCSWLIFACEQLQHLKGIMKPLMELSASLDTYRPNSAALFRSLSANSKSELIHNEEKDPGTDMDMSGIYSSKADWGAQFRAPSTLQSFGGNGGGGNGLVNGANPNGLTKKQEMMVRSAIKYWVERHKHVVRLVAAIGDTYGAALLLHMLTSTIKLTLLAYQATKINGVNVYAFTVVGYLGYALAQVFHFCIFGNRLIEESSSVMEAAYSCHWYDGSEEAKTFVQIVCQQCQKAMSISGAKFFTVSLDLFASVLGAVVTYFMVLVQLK
Description: The GFETs used in this study were fabricated from a predeposited graphene film on 300 nm SiO2 coated Si substrate from ACS Suppliers, USA. The FETs consist of a channel with dimensions of 100 μm width and […]. The key steps involved in fabricating the GFET on a Si/SiO2 substrate is schematically illustrated in FIG. 12. The source and drain electrodes were defined by photolithography and formed by successive deposition of Cr and Au. Both the drain and source electrodes were then encapsulated using AZ1518 photoresist and a channel with dimensions of 100 μm width and 10 μm length was left open to the environment for gating and functionalisation.
The OR liposomes were functionalised onto the graphene surface via a non-covalent route using PBASE as the molecular linker as shown in FIG. 13. The OR liposomes were diluted at 1:10 ratio with 1×PBS (pH7.4). The cleaned GFETs were immersed in 1 mM PBASE solution in methanol for 1 hour. […]
Electrical sensor measurements of OR liposome functionalised GFETs were carried out using top liquid gate morphology as shown in the schematic in FIG. 15 (a). […] The transfer characteristics of the different graphene FETs (FIG. 15 (b) to (g)) were measured at Vds=1 mV while the liquid gate voltage Vlg was swept from −0.5 V to 1 V with an interval of 20 mV. […]

Structure (SMILES) | sensor response to target ligand [1] | Detection Range (Or10a/Orco) | EC50 (Or10a/Orco) [pM]
COC(=O)c1ccccc1O [methyl salicylate] | lack of response | 10^−13-10^−8 M | 2.07
CCCCCC(=O)OC [methyl hexanoate] | lack of response |  | 
